Here are results for 27 compounds from ChEMBL document CHEMBL4823252 (J Med Chem, 2021).

One data set has as its system MV4-11. As to the kind of experiment: Antiproliferative activity against human MV4-11 cells incubated for 72 hrs by Cell Counting Kit-8 assay. The data set is classed as functional, cell-based. The settings on record: MV4-11, 72 h. (In general: Formazan colour is commonly taken as a measure of viable cells.)
Data set [1] relates to MOLM-13. The experiment in a line: Antiproliferative activity against human MOLM-13 cells incubated for 72 hrs by Cell Counting Kit-8 assay. It counts as functional, cell-based. The conditions noted are these: MOLM-13, 72 h.
In data set [2] the target is T1, Receptor-type tyrosine-protein kinase FLT3 (Homo sapiens, UniProt P36888).
T1 sequence (P36888 whole entry): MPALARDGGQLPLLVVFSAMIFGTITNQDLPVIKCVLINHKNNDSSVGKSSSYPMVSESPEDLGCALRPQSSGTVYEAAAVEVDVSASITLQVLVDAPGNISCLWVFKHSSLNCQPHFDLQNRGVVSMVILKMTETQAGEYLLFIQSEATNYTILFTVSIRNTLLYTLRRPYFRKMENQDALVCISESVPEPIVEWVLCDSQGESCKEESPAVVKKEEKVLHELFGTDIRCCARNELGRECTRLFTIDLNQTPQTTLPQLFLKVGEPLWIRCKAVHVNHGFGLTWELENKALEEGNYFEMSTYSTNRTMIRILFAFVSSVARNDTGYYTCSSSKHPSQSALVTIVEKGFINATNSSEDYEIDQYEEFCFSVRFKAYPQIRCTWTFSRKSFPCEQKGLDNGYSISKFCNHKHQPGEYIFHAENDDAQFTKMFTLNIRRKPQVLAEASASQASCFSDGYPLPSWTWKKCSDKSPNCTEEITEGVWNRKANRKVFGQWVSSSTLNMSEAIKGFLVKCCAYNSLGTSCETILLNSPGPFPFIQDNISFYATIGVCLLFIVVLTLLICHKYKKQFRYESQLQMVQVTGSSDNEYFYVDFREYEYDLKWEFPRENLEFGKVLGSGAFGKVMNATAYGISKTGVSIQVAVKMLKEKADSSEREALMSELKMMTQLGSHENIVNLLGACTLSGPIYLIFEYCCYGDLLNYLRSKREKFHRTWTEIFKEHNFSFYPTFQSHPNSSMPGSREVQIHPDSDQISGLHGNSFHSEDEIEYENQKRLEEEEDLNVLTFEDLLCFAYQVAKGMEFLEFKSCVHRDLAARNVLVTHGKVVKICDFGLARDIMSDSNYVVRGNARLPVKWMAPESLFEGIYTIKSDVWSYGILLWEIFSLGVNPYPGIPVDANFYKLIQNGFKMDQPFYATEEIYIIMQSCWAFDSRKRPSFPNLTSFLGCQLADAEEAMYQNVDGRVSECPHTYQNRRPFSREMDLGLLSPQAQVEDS
As to the kind of experiment: Inhibition of FLT3 (unknown origin) incubated for 30 mins in presence of ATP by mobility shift assay.

Data set [3] has as its system MOLM-13. The experiment in a line: Antiproliferative activity against human sunitinib-resistant MOLM-13 cells at 1000 nM incubated for 72 hrs by CCK8 assay relative to control. It counts as functional.
Data set [4] has as its system MOLM-13. The experiment in a line: Antiproliferative activity against human sunitinib-resistant MOLM-13 cells at 111 nM incubated for 72 hrs by CCK8 assay relative to control. The data set is classed as functional.
In data set [5] the test system is MOLM-13. The experiment in a line: Antiproliferative activity against human sunitinib-resistant MOLM-13 cells at 37 nM incubated for 72 hrs by CCK8 assay relative to control. It counts as functional.
The subject of data set [6] is MOLM-13. As to the kind of experiment: Antiproliferative activity against human sunitinib-resistant MOLM-13 cells at 12 nM incubated for 72 hrs by CCK8 assay relative to control. The data set is classed as functional.
In data set [7] the test system is MOLM-13. The experiment in a line: Antiproliferative activity against human sunitinib-resistant MOLM-13 cells at 4 nM incubated for 72 hrs by CCK8 assay relative to control. The data set is classed as functional.
The subject of data set [8] is MOLM-13. As to the kind of experiment: Antiproliferative activity against human sunitinib-resistant MOLM-13 cells at 1 nM incubated for 72 hrs by CCK8 assay relative to control. It counts as functional.
Data set [9] concerns MOLM-13. As to the kind of experiment: Antiproliferative activity against human quizartinib-resistant MOLM-13 cells at 1000 nM incubated for 72 hrs by CCK8 assay relative to control. The data set is classed as functional.
Data set [10] deals with MOLM-13. The experiment in a line: Antiproliferative activity against human quizartinib-resistant MOLM-13 cells at 333 nM incubated for 72 hrs by CCK8 assay relative to control. It counts as functional.
Data set [11] concerns MOLM-13. As to the kind of experiment: Antiproliferative activity against human quizartinib-resistant MOLM-13 cells at 111 nM incubated for 72 hrs by CCK8 assay relative to control. The data set is classed as functional.
The test system of data set [12] is MOLM-13. The experiment in a line: Antiproliferative activity against human quizartinib-resistant MOLM-13 cells at 37 nM incubated for 72 hrs by CCK8 assay relative to control. It counts as functional.
For data set [13], the system named is MOLM-13. As to the kind of experiment: Antiproliferative activity against human quizartinib-resistant MOLM-13 cells at 12 nM incubated for 72 hrs by CCK8 assay relative to control. It counts as functional.
The test system of data set [14] is MOLM-13. As to the kind of experiment: Antiproliferative activity against human quizartinib-resistant MOLM-13 cells at 4 nM incubated for 72 hrs by CCK8 assay relative to control. The data set is classed as functional.
The subject of data set [15] is MOLM-13. The experiment in a line: Antiproliferative activity against human quizartinib-resistant MOLM-13 cells at 1 nM incubated for 72 hrs by CCK8 assay relative to control. It counts as functional.
In data set [16] the test system is MOLM-13. As to the kind of experiment: Antiproliferative activity against human sunitinib-resistant MOLM-13 cells at 333 nM incubated for 72 hrs by CCK8 assay relative to control. It counts as functional.
Data set [17] is described as follows: Chemical stability of compound incubated for 90 days by HPLC analysis. The data set is classed as physicochemical. The conditions noted are these: time 90 day; read-out: Stabilty.

One may read the IC50 as the concentration at which inhibition is half-maximal. On to `CCN(CC)CCC(=O)Nc1c[nH]c(/C=C2\C(=O)Nc3ccc(F)cc32)c1C`, for which the half-inhibitory concentration (IC50) turned out to be 30.3 nM in the data set with MV4-11, 54.3 nM with MOLM-13 [1] and 2 nM in [2].
The like results for `Cc1c(NC(=O)CN2CCN(C)CC2)c[nH]c1/C=C1\C(=O)Nc2ccc(F)cc21` were, in that order, 51.8 nM, 48.4 nM and 2.7 nM.
As for `Cc1c(NC(=O)[C@H]2CCCN2)c[nH]c1/C=C1\C(=O)Nc2ccc(F)cc21`, the figures for the 50% inhibitory concentration (IC50) in the data set with MV4-11 and with MOLM-13 [1] were 69.9 nM and 70.8 nM, respectively.
As for `CC(C)(C)c1cc(NC(=O)Nc2ccc(-c3cn4c(n3)sc3cc(OCCN5CCOCC5)ccc34)cc2)no1` [QUIZARTINIB], the Activity in the data set with MOLM-13 [3] was 10.9%; in the data set on MOLM-13 [4] it was -1.5%; in the data set on MOLM-13 [5], 0.2%; in the data set on MOLM-13 [6] it was 2.8%; with MOLM-13 [7], -0.9%; with MOLM-13 [8], 1.4%. In addition, the Activity in the data set on MOLM-13 [9] is recorded as 1.3%; with MOLM-13 [10], -4.1%; in the data set with MOLM-13 [11], -5.8%; in the data set on MOLM-13 [12], -0.8%; with MOLM-13 [13], 2.9%; with MOLM-13 [14] it was -0.4%. Also, the Activity in the data set with MOLM-13 [15] was 5.2%; in the data set on MOLM-13 [16], 5.7%.
`CCNCCC(=O)Nc1c[nH]c(/C=C2\C(=O)Nc3ccc(F)cc32)c1C`: the figures for the IC50 (in the data set on MV4-11; in the data set with MOLM-13 [1]; in data set [2]) were 34.5 nM, 51.2 nM and 2.5 nM, respectively.
On to `Cc1c(NC(=O)CCN2CCN(C)CC2)c[nH]c1/C=C1\C(=O)Nc2ccc(F)cc21`, for which the 50% inhibitory concentration (IC50) with MV4-11 was found to be 41.3 nM; in the data set on MOLM-13 [1] it was 47.5 nM; in [2], 3 nM.
With `Cc1c(NC(=O)CN2CCCCC2)c[nH]c1/C=C1\C(=O)Nc2ccc(F)cc21`, the results for the IC50 with MV4-11 and in the data set on MOLM-13 [1] were 252 nM and > 1000 nM, respectively.
In the case of `CCCNCCC(=O)Nc1c[nH]c(/C=C2\C(=O)Nc3ccc(F)cc32)c1C`, the IC50 worked out at 34.7 nM with MV4-11, 57.4 nM in the data set on MOLM-13 [1] and 1.7 nM in data set [2].
For `Cc1c(/C=C2\C(=O)Nc3ccc(F)cc32)[nH]c(Br)c1NC(=O)[C@@H]1CCCN1`, the remaining at 2160 h in [17] is 96.6%. In addition, the IC50 in the data set on MV4-11 was found to be 61.5 nM.
For `Cc1c(/C=C2\C(=O)Nc3ccc(F)cc32)[nH]c(Cl)c1NC(=O)[C@@H]1CCCN1`, in that order: 95.4% and 50.7 nM.
Take `Cc1c(NC(=O)CCN(C)C)c[nH]c1/C=C1\C(=O)Nc2ccc(F)cc21`: the IC50 in the data set with MV4-11 amounted to 32.4 nM; with MOLM-13 [1] it was 57 nM; in [2], 1.7 nM.
For `Cc1c(NC(=O)CCN2CCCCC2)c[nH]c1/C=C1\C(=O)Nc2ccc(F)cc21`, in that order: 44.2 nM, 64.2 nM and 1.3 nM.
As to `Cc1[nH]c(/C=C2\C(=O)Nc3ccc(F)cc32)c(C)c1NC(=O)[C@@H]1CCCN1`, in data set [17], the remaining at 2160 h was found to be 80.8%. The same compound registered an IC50 in the data set on MV4-11 of 40.9 nM.
On to `Cc1c(NC(=O)CCN2CCCC2)c[nH]c1/C=C1\C(=O)Nc2ccc(Cl)cc21`, for which the concentration for half-maximal inhibition (IC50) stood at 20.9 nM in the data set on MV4-11 and 64.5 nM in the data set with MOLM-13 [1].
In the case of `Cc1c(NC(=O)CC2CCCN2)c[nH]c1/C=C1\C(=O)Nc2ccc(F)cc21` (stereo unspecified), the figures for the IC50 (in the data set on MV4-11; with MOLM-13 [1]; in data set [2]) were 50 nM, 35.9 nM and 2.7 nM, respectively.
The like results for `Cc1c(NC(=O)CCNC2CCCC2)c[nH]c1/C=C1\C(=O)Nc2ccc(F)cc21` were, in that order, 29.2 nM, 44.3 nM and 0.6 nM.
As to `Cc1c(NC(=O)CCN2CCCC2)c[nH]c1/C=C1\C(=O)Nc2ccc(Br)cc21`, the IC50 stood at 58.6 nM in the data set on MV4-11 and 71.5 nM in the data set on MOLM-13 [1].
Take `Cc1c(NC(=O)[C@@H]2CCCN2)c[nH]c1/C=C1\C(=O)Nc2ccc(F)cc21`: the remaining at 2160 h in data set [17] stood at 99.1%. In addition, the IC50 stood at 37.2 nM in the data set on MV4-11, 35.9 nM with MOLM-13 [1] and 2.5 nM in data set [2].
`Cc1c(NC(=O)CCNC(C)(C)C)c[nH]c1/C=C1\C(=O)Nc2ccc(F)cc21`: the IC50 in the data set with MV4-11 stood at 44.8 nM; in the data set with MOLM-13 [1], 58.2 nM; in [2], 1.8 nM.
Regarding `Cc1c(NC(=O)CCN2CCOCC2)c[nH]c1/C=C1\C(=O)Nc2ccc(F)cc21`, the IC50 with MV4-11 turned out to be 133 nM; in the data set with MOLM-13 [1], 173 nM.
`Cc1c(NC(=O)CN2CCCC2)c[nH]c1/C=C1\C(=O)Nc2ccc(F)cc21`: the IC50 was determined as 77 nM in the data set on MV4-11, 61.9 nM in the data set with MOLM-13 [1] and 1.4 nM in [2].
Consider `Cc1c(NC(=O)C2CCNCC2)c[nH]c1/C=C1\C(=O)Nc2ccc(F)cc21`, for which the figures for the IC50 in the data set on MV4-11 and in the data set with MOLM-13 [1] were 177 nM and 143 nM, respectively.
The like results for `COc1ccc2c(c1)/C(=C/c1[nH]cc(NC(=O)CCN3CCCC3)c1C)C(=O)N2` were, in that order, 28.9 nM and 55.7 nM.
Turning to `Cc1c(NC(=O)CN(C)C)c[nH]c1/C=C1\C(=O)Nc2ccc(F)cc21`, the values for the IC50 (in the data set on MV4-11; in the data set with MOLM-13 [1]; in data set [2]) were 78.6 nM, 36 nM and 2 nM, respectively.
`CCN(CC)CC(=O)Nc1c[nH]c(/C=C2\C(=O)Nc3ccc(F)cc32)c1C`: the IC50 amounted to 81.7 nM in the data set with MV4-11 and 176 nM with MOLM-13 [1].
For `Cc1c(NC(=O)C2CCCCN2)c[nH]c1/C=C1\C(=O)Nc2ccc(F)cc21` (stereo unspecified), the IC50 is 54.4 nM with MV4-11, 59.2 nM with MOLM-13 [1] and 2.4 nM in data set [2].
Consider `Cc1c(NC(=O)CNC2CCCC2)c[nH]c1/C=C1\C(=O)Nc2ccc(F)cc21`, for which the IC50 was determined as 125 nM in the data set on MV4-11 and 158 nM in the data set on MOLM-13 [1].
